Experimental data: PMC9584906, “Cryo-EM structures of thermostabilized prestin provide mechanistic insights underlying outer hair cell electromotility” (Nature Communications, 2022)

Key:
[1] = biological target: T1, HgPres (naked mole-rat prestin) (Heterocephalus glaber, UniProt A0AAX6NYL9); experiment: whole-cell nonlinear capacitance (NLC); assay type: cell-based; settings: 10 mM salicylate in bath; HEK293T cells; room temperature; pH 7.3
T1 construct: gene Slc26a5
T1 sequence (A0AAX6NYL9 1-744): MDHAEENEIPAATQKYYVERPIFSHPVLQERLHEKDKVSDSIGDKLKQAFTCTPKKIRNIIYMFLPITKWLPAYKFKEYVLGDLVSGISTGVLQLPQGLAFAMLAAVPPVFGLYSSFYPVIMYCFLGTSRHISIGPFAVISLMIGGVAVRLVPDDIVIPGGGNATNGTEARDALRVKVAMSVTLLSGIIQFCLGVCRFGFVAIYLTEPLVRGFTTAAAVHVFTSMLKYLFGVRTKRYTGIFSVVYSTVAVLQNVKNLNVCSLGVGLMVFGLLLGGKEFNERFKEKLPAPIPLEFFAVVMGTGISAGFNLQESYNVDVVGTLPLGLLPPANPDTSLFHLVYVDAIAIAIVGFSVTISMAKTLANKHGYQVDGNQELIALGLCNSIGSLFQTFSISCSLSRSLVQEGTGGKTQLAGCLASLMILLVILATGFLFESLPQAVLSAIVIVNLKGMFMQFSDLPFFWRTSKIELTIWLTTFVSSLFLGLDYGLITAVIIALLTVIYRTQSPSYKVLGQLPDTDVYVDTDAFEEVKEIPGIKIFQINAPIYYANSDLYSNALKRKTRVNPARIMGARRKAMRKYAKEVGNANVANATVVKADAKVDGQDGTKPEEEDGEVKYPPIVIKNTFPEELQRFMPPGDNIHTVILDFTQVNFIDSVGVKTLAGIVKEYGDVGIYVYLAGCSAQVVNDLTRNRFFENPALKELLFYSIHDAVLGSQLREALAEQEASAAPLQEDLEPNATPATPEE

[2] = biological target: T2, hPres (human prestin, SLC26A5) (Homo sapiens, UniProt P58743); experiment: isothermal titration calorimetry; assay type: binding
T2 construct: full-length; C-terminal TEV-FLAG-EGFP tag cleaved off; HEK293S GnTI- (BacMam); digitonin micelles
T2 sequence (P58743 1-744): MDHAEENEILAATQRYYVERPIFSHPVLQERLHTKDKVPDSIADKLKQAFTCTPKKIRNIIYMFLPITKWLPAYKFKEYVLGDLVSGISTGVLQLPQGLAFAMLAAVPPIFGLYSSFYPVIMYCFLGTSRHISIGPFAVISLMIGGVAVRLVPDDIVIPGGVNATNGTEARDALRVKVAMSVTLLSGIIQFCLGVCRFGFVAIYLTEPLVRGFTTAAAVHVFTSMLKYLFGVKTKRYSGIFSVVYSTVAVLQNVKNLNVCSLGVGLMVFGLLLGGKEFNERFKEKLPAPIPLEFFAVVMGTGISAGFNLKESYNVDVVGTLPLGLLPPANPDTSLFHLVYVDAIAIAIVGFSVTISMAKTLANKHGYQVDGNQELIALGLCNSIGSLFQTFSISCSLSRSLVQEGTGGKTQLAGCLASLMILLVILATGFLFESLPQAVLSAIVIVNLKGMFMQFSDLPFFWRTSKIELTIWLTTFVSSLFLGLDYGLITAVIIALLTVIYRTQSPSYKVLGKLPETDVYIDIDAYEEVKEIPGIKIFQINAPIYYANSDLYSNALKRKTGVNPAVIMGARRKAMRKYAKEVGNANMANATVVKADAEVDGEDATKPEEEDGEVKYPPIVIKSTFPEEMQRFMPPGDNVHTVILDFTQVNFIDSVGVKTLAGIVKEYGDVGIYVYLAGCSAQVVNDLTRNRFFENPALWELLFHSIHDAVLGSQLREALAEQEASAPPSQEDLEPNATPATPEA

SMILES: O=C(O)c1ccccc1O [salicylate]
- effect on NLC at 10 mM [1]: The effect of salicylate on the NLC of WT (left) and S398A-HgPres (right)
- Kd [2]: 7.08 mM
